Consider four compounds from patent US20220073554A1, “LINCOSAMIDE ANTIBIOTICS AND USES THEREOF” (President and Fellows of Harvard College, priority 2017, published 2022).

Values after ≈ are worked out from the molar mass of the structure shown. Some results are limits rather than exact numbers.

By MIC is commonly meant the lowest concentration that inhibits growth of the organism.

One assay concerns S. pyogenes ATCC 19615. As to the kind of experiment: MIC against S. pyogenes ATCC 19615. The settings on record: Streptococcus pyogenes, ATCC19615; S. pyogenes ATCC 19615; read-out: MIC. Format: cell-based.
Regarding `CSC1O[C@H]([C@H](NC(=O)[C@H]2NC[C@@H]3CC(c4ccc(-c5ccccc5)cc4)=CCO[C@H]32)[C@H](C)Cl)C(O)[C@@H](O)[C@H]1O` (stereo partly shown) [FSA-510001], the MIC worked out at 2 µg/mL (≈ 3.39 µM).
Consider `COc1ccc(C2CCO[C@@H]3[C@H](CN[C@@H]3C(=O)N[C@H]([C@H](C)Cl)[C@H]3OC(SC)[C@H](O)[C@H](O)C3O)C2)cc1` (stereo partly shown) [FSA-511045], for which the MIC was at most 0.06 µg/mL.
Consider `CSC1O[C@H]([C@H](NC(=O)[C@H]2NC[C@@H]3C[C@H](c4ccc(C#N)cc4)CCO[C@H]32)[C@H](C)Cl)C(O)[C@@H](O)[C@H]1O` (stereo partly shown) [FSA-512081b], for which the MIC is at most 0.06 µg/mL.

Another assay deals with S. pneumoniae MMX 3031 cMefA. As to the kind of experiment: MIC against S. pneumoniae MMX 3031 cMefA. In kind it is cell-based. Conditions: Streptococcus pneumoniae, MMX3031CMEFA.
In turn, `CSC1O[C@H]([C@H](NC(=O)[C@H]2NC[C@@H]3C[C@@H](c4ccc(C#N)cc4)CCO[C@H]32)[C@H](C)Cl)C(O)[C@@H](O)[C@H]1O` (stereo partly shown) [FSA-512081a] gave an MIC of at most 0.06 µg/mL.

The next assay relates to E. coli ATCC 15922. As to the kind of experiment: MIC against E. coli ATCC 15922. Format: cell-based. The settings on record: Escherichia coli, ATCC15922; E. coli ATCC 15922; read-out: MIC.
With `COc1ccc(C2CCO[C@@H]3[C@H](CN[C@@H]3C(=O)N[C@H]([C@H](C)Cl)[C@H]3OC(SC)[C@H](O)[C@H](O)C3O)C2)cc1` (stereo partly shown) [FSA-511045], the minimal inhibitory concentration (MIC) was above 64 µg/mL.

The next assay relates to S. aureus MP-549 msr(a) USA 300. The assay is described as follows: MIC against S. aureus MP-549 msr(a) USA 300. Format: cell-based. Conditions: Staphylococcus aureus, USA300, S. aureus MP-549 msr(a) USA 300.
Consider `CSC1O[C@H]([C@H](NC(=O)[C@H]2NC[C@@H]3C[C@H](c4ccc(C#N)cc4)CCO[C@H]32)[C@H](C)Cl)C(O)[C@@H](O)[C@H]1O` (stereo partly shown) [FSA-512081b], for which the MIC turned out to be 1 µg/mL (≈ 1.85 µM).

A further assay deals with E. faecalis ATCC 29212. As to the kind of experiment: MIC against E. faecalis ATCC 29212. In kind it is cell-based. The settings on record: Enterococcus faecalis, ATCC29212.
For `CSC1O[C@H]([C@H](NC(=O)[C@H]2NC[C@@H]3CC(c4ccc(-c5ccccc5)cc4)=CCO[C@H]32)[C@H](C)Cl)C(O)[C@@H](O)[C@H]1O` (stereo partly shown) [FSA-510001], the MIC came out at 8 µg/mL (≈ 13.6 µM).

Still in this assay, the particulars now being: Enterococcus faecalis, ATCC29212, read-out: MIC.
For the compound `COc1ccc(C2CCO[C@@H]3[C@H](CN[C@@H]3C(=O)N[C@H]([C@H](C)Cl)[C@H]3OC(SC)[C@H](O)[C@H](O)C3O)C2)cc1` (stereo partly shown) [FSA-511045], the MIC is 1 µg/mL (≈ 1.83 µM).
Consider `CSC1O[C@H]([C@H](NC(=O)[C@H]2NC[C@@H]3C[C@H](c4ccc(C#N)cc4)CCO[C@H]32)[C@H](C)Cl)C(O)[C@@H](O)[C@H]1O` (stereo partly shown) [FSA-512081b], for which the MIC is 1 µg/mL (≈ 1.85 µM).

The test system of the next assay is E. coli MP-9 ΔTolC. The assay is described as follows: MIC against E. coli MP-9 ΔTolC. The settings on record: Escherichia coli. In kind it is cell-based.
`CSC1O[C@H]([C@H](NC(=O)[C@H]2NC[C@@H]3CC(c4ccc(-c5ccccc5)cc4)=CCO[C@H]32)[C@H](C)Cl)C(O)[C@@H](O)[C@H]1O` (stereo partly shown) [FSA-510001] came in with a minimal inhibitory concentration (MIC) above 64 µg/mL.
Turning to `COc1ccc(C2CCO[C@@H]3[C@H](CN[C@@H]3C(=O)N[C@H]([C@H](C)Cl)[C@H]3OC(SC)[C@H](O)[C@H](O)C3O)C2)cc1` (stereo partly shown) [FSA-511045], the lowest concentration to inhibit growth (MIC) was 8 µg/mL (≈ 14.7 µM).
In turn, `CSC1O[C@H]([C@H](NC(=O)[C@H]2NC[C@@H]3C[C@H](c4ccc(C#N)cc4)CCO[C@H]32)[C@H](C)Cl)C(O)[C@@H](O)[C@H]1O` (stereo partly shown) [FSA-512081b] had an MIC of 8 µg/mL (≈ 14.8 µM).

A further assay relates to S. pneumoniae ATCC 49619. The assay is described as follows: MIC against S. pneumoniae ATCC 49619. Format: cell-based. The settings on record: Streptococcus pneumoniae, ATCC49619; S. pneumoniae ATCC 49619; read-out: MIC.
Turning to `CSC1O[C@H]([C@H](NC(=O)[C@H]2NC[C@@H]3CC(c4ccc(-c5ccccc5)cc4)=CCO[C@H]32)[C@H](C)Cl)C(O)[C@@H](O)[C@H]1O` (stereo partly shown) [FSA-510001], the minimum inhibitory concentration (MIC) amounted to 4 µg/mL (≈ 6.79 µM).
Regarding `COc1ccc(C2CCO[C@@H]3[C@H](CN[C@@H]3C(=O)N[C@H]([C@H](C)Cl)[C@H]3OC(SC)[C@H](O)[C@H](O)C3O)C2)cc1` (stereo partly shown) [FSA-511045], the MIC is at most 0.06 µg/mL.
As to `CSC1O[C@H]([C@H](NC(=O)[C@H]2NC[C@@H]3C[C@H](c4ccc(C#N)cc4)CCO[C@H]32)[C@H](C)Cl)C(O)[C@@H](O)[C@H]1O` (stereo partly shown) [FSA-512081b], the MIC was at most 0.06 µg/mL.

In another assay the test system is S. aureus ATCC 29213. The assay is described as follows: MIC against S. aureus ATCC 29213. The settings on record: Staphylococcus aureus, ATCC29213, S. aureus ATCC 29213; read-out: MIC. In kind it is cell-based.
In the case of `CSC1O[C@H]([C@H](NC(=O)[C@H]2NC[C@@H]3CC(c4ccc(-c5ccccc5)cc4)=CCO[C@H]32)[C@H](C)Cl)C(O)[C@@H](O)[C@H]1O` (stereo partly shown) [FSA-510001], the MIC came out at 2 µg/mL (≈ 3.39 µM).
On the same count and under the same terms, the result for `COc1ccc(C2CCO[C@@H]3[C@H](CN[C@@H]3C(=O)N[C@H]([C@H](C)Cl)[C@H]3OC(SC)[C@H](O)[C@H](O)C3O)C2)cc1` (stereo partly shown) [FSA-511045] reads 0.3 µg/mL (≈ 0.55 µM).

For the next assay, the system named is K. pneumoniae ATCC 10031. As to the kind of experiment: MIC against K. pneumoniae ATCC 10031. In kind it is cell-based. The settings on record: Klebsiella pneumoniae, ATCC10031.
`CSC1O[C@H]([C@H](NC(=O)[C@H]2NC[C@@H]3CC(c4ccc(-c5ccccc5)cc4)=CCO[C@H]32)[C@H](C)Cl)C(O)[C@@H](O)[C@H]1O` (stereo partly shown) [FSA-510001] gave an MIC above 64 µg/mL.

Another assay relates to E. coli ATCC 25922. The assay is described as follows: MIC against E. coli ATCC 25922. Format: cell-based. The settings on record: Escherichia coli, ATCC25922.
For the compound `CSC1O[C@H]([C@H](NC(=O)[C@H]2NC[C@@H]3CC(c4ccc(-c5ccccc5)cc4)=CCO[C@H]32)[C@H](C)Cl)C(O)[C@@H](O)[C@H]1O` (stereo partly shown) [FSA-510001], the MIC is above 64 µg/mL.

For another assay, the system named is S. aureus BAA 977 iErmA. The assay is described as follows: MIC against S. aureus BAA 977 iErmA. Format: cell-based. Conditions: Staphylococcus aureus, BAA977.
In the case of `CSC1O[C@H]([C@H](NC(=O)[C@H]2NC[C@@H]3CC(c4ccc(-c5ccccc5)cc4)=CCO[C@H]32)[C@H](C)Cl)C(O)[C@@H](O)[C@H]1O` (stereo partly shown) [FSA-510001], the MIC was 2 µg/mL (≈ 3.39 µM).
Turning to `CSC1O[C@H]([C@H](NC(=O)[C@H]2NC[C@@H]3C[C@@H](c4ccc(C#N)cc4)CCO[C@H]32)[C@H](C)Cl)C(O)[C@@H](O)[C@H]1O` (stereo partly shown) [FSA-512081a], inhibition of growth (MIC) required 1 µg/mL (≈ 1.85 µM).
Same read-out and setting: as for `CSC1O[C@H]([C@H](NC(=O)[C@H]2NC[C@@H]3C[C@H](c4ccc(C#N)cc4)CCO[C@H]32)[C@H](C)Cl)C(O)[C@@H](O)[C@H]1O` (stereo partly shown) [FSA-512081b], the figure is 1 µg/mL (≈ 1.85 µM).

The subject of another assay is E. coli MP-74 LptD mutant. As to the kind of experiment: MIC against E. coli MP-74 LptD mutant. Format: cell-based. Conditions: Escherichia coli.
On to `CSC1O[C@H]([C@H](NC(=O)[C@H]2NC[C@@H]3CC(c4ccc(-c5ccccc5)cc4)=CCO[C@H]32)[C@H](C)Cl)C(O)[C@@H](O)[C@H]1O` (stereo partly shown) [FSA-510001], for which the MIC came to 8 µg/mL (≈ 13.6 µM).
As to `COc1ccc(C2CCO[C@@H]3[C@H](CN[C@@H]3C(=O)N[C@H]([C@H](C)Cl)[C@H]3OC(SC)[C@H](O)[C@H](O)C3O)C2)cc1` (stereo partly shown) [FSA-511045], the MIC stood at 37 µg/mL (≈ 67.9 µM).
`CSC1O[C@H]([C@H](NC(=O)[C@H]2NC[C@@H]3C[C@H](c4ccc(C#N)cc4)CCO[C@H]32)[C@H](C)Cl)C(O)[C@@H](O)[C@H]1O` (stereo partly shown) [FSA-512081b]: the MIC was determined as 37 µg/mL (≈ 68.5 µM).
